The text below walks through data of ChEMBL document CHEMBL1201862, “PubChem BioAssay data set” (2004).

The term EC50 denotes the concentration giving half of the maximal effect. The IC50 is the point on the concentration scale where inhibition reaches its midpoint. A word on the AC50: it is the concentration at which the activity in the assay is half-maximal.

Active and inactive are the calls of the source.

One assay deals with Beta-galactosidase (Escherichia coli, UniProt Q8VNN2). Nature of the assay: PubChem AID 485352. Format: functional.
The target of assay [1] is Type-1 angiotensin II receptor (Homo sapiens, UniProt P30556). Nature of the assay: antagonism of angiotensin II type 1 receptor – cell-based, uHTS hits, selectivity assay for APJ receptor antagonist project, dose response (AID 463214).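 Also: antagonist potency against angiotensin II stimulated AT1 response.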 Format: functional.
Assay [2] concerns the target Nuclear receptor subfamily 0 group B member 1 (Homo sapiens, UniProt P51843). Nature of the assay: Luminescence-based cell-based high throughput dose response assay for inhibitors of the orphan nuclear receptor subfamily 0, group B, member 1 (DAX1; NR0B1). [Related pubchem assays (depositor defined):AID504766, AID504790]. Format: functional.
Assay [3] has as its target T1, DNA repair and recombination protein RAD54-like (Homo sapiens, UniProt Q92698).
T1 sequence (Q92698 whole entry): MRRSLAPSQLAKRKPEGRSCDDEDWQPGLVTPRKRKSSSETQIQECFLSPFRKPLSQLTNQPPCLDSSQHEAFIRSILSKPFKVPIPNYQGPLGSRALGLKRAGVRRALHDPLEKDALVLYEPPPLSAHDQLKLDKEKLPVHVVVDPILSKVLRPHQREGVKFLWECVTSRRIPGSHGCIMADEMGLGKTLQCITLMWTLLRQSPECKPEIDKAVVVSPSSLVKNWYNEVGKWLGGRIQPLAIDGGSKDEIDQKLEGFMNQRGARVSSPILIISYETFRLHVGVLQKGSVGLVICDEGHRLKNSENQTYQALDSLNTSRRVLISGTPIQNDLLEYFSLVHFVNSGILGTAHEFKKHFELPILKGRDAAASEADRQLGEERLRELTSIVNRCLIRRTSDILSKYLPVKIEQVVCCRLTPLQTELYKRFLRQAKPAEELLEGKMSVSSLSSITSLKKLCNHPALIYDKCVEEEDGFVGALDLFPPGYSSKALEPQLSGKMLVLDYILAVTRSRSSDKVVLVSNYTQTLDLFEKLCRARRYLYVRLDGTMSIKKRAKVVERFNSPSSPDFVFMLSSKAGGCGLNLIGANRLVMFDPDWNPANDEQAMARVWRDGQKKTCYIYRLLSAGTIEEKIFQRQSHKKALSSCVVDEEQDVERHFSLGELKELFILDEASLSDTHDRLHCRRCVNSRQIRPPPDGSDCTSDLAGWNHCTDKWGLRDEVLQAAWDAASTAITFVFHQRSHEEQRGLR
Nature of the assay: RAD54 Holliday junction migration blockers – biochemical, fluorescence, cherry-picked samples, dose series, confirmation (AID 651657). In kind it is functional.

The subject of a further assay is HEK293. Nature of the assay: cells. Format: functional, cell-based. As to conditions: Homo sapiens.
Another assay concerns Streptococcus. Nature of the assay: GAS UMAA2166 growth inhibition – luminescence, BacTiterGlo, counter-screen for streptokinase expression inhibitor project, dose response (AID 1915).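 Also: potency for reduction of bacterial viability or growth.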 Format: functional, organism-based. For orientation: The purpose of a counterscreen is to sort out artefacts and off-target activity.
A further assay addresses Phospholipase A2 (Homo sapiens, UniProt P04054). In kind it is functional.
A further assay has as its target T2, Streptokinase A (Streptococcus pyogenes serotype M1, UniProt P10520).
T2 sequence (P10520 whole entry): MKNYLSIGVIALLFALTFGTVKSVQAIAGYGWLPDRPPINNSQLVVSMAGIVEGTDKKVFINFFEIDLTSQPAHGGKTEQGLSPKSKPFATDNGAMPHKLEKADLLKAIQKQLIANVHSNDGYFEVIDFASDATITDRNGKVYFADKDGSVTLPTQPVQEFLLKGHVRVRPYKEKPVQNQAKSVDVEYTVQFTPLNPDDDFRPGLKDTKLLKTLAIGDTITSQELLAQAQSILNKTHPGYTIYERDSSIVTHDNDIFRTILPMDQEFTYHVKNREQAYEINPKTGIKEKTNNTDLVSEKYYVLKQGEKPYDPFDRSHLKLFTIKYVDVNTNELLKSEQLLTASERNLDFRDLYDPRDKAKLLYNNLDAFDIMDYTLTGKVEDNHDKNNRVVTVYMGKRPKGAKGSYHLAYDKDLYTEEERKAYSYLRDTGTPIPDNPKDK
Nature of the assay: viability-normalized secreted streptokinase activity reduction – plasminogen activation absorbance, OD405, dose response (AID 1914).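 Also: secreted streptokinase activity via plasminogen activation per viability signal from cell pellet.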 In kind it is functional, Streptococcus pyogenes M1 GAS.

Assay [4] concerns Streptococcus sp. 'group A'. Nature of the assay: Streptococcus pyogenes SK(-)GAS viability under kanamycin – luminescence, BacTiterGlo, confirmation, counter-screen for streptokinase expression inhibitor project, dose response (AID 1900). Format: functional, organism-based.
The next assay deals with Cysteine protease ATG4B (Homo sapiens, UniProt Q9Y4P1). Format: functional.
Assay [5] deals with Candida albicans. Nature of the assay: C. albicans growth inhibition with fluconazole – CaCi-2 strain, Alamar Blue, dry powder, set 4, dose response (AID 488943). In kind it is functional, organism-based. (In general: Alamar Blue is a resazurin reagent that responds to reducing activity.)
Assay [6] deals with Candida albicans. Nature of the assay: antifungal activity against resistant Candida strain – CaCi-8, fluconazole, Alamar Blue, dry powder, dose response (AID 488807). In kind it is functional, organism-based.
In assay [7] the test system is Candida albicans. Nature of the assay: fluconazole-resistant Candida strain growth inhibitors – CaCi-8 strain, dry powder, set 4, dose response (AID 488950). Format: functional, organism-based.
Another assay has as its target Hexokinase-1 (Homo sapiens, UniProt P19367). Nature of the assay: SAR analysis of small molecule inhibitors of hexokinase domain containing I (HKDC1) in the hexokinase 1 selectivity assay. [Related pubchem assays (depositor defined):AID493160, AID493190]. Format: functional.
For another assay, the target named is Hexokinase HKDC1 (Homo sapiens, UniProt Q2TB90). Nature of the assay: SAR analysis of small molecule inhibitors of hexokinase domain containing I (HKDC1). [Related pubchem assays (depositor defined):AID493160, AID493190]. In kind it is functional.
For assay [8], the target named is T3, Short transient receptor potential channel 4 (Mus musculus, UniProt Q9QUQ5).
T3 sequence (Q9QUQ5 whole entry): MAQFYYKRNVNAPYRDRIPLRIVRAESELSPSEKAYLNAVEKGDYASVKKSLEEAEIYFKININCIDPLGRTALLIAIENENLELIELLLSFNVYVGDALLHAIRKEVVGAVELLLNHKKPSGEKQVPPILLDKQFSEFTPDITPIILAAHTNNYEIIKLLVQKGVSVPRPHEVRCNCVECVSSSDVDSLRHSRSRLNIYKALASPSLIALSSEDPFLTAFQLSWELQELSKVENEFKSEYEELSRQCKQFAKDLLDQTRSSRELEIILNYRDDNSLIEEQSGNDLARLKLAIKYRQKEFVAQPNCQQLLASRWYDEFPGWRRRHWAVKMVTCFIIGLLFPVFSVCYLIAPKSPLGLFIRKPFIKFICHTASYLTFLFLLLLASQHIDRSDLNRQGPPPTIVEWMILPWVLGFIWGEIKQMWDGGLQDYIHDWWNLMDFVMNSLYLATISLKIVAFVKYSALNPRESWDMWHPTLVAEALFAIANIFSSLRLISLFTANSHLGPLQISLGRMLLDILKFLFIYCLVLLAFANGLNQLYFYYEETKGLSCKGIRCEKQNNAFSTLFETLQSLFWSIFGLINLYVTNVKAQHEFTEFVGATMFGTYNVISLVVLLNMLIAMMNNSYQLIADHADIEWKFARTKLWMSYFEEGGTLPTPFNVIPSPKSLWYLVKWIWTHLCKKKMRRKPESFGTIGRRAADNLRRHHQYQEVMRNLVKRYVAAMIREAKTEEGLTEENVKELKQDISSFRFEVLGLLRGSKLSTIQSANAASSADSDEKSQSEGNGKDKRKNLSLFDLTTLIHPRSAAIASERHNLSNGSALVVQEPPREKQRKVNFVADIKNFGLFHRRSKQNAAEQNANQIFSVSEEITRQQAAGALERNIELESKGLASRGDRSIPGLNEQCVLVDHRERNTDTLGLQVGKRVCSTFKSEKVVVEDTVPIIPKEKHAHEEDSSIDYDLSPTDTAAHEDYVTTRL
Nature of the assay: potency of mouse TRPC4 calcium flux blockers – cell-based, HEK293 TRPC4/mu-opioid, DAMGO stimulus, Fluo-4, dose response (AID 492994). Format: functional. (In general: Calcium assays in cells follow changes in intracellular calcium, usually with a dye or a luminescent sensor.)

Type-1 angiotensin II receptor, sequence (P30556 whole entry): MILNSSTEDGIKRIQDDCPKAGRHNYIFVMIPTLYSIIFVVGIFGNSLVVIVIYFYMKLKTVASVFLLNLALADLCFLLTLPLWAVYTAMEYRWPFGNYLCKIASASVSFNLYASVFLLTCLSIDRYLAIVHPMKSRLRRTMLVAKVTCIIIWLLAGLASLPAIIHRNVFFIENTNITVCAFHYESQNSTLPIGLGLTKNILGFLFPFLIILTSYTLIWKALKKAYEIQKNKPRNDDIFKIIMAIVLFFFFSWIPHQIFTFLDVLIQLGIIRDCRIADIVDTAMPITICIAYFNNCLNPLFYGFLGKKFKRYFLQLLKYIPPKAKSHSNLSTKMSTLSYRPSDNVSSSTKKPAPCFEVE
Cysteine protease ATG4B, sequence (Q9Y4P1 whole entry): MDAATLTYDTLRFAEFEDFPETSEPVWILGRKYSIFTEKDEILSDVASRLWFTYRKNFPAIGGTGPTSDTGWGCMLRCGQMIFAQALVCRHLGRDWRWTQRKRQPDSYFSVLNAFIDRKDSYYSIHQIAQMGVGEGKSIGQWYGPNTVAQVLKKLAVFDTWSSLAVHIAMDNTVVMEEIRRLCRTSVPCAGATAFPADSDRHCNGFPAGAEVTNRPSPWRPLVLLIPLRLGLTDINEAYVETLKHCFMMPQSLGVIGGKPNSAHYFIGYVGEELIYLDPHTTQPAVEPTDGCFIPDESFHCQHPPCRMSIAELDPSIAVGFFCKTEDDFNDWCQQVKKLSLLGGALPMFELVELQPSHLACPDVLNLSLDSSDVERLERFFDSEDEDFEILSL
Hexokinase HKDC1, sequence (Q2TB90 whole entry, the tested form may be a part): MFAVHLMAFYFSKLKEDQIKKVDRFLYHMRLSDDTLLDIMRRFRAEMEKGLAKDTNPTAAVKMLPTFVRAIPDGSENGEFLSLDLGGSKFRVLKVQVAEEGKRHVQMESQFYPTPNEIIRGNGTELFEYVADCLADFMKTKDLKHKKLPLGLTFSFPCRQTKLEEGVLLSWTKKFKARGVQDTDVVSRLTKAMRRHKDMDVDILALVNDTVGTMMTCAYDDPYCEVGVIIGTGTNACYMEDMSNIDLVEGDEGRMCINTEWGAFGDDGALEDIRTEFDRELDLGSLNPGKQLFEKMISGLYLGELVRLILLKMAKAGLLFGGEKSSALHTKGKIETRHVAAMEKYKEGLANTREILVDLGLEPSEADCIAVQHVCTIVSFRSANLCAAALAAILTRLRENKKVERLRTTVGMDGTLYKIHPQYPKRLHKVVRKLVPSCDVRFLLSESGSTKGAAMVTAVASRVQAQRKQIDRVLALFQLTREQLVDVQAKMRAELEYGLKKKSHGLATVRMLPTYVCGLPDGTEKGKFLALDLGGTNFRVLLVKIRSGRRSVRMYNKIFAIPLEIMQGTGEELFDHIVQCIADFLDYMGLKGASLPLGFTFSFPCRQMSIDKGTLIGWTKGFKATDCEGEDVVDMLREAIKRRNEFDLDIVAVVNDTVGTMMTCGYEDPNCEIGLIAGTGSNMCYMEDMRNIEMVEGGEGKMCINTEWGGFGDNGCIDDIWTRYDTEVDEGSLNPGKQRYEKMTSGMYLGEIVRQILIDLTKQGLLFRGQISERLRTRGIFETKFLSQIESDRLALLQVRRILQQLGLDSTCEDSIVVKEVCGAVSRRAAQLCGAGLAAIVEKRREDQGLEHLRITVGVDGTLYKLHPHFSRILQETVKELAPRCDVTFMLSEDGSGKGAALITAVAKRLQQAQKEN
Nuclear receptor subfamily 0 group B member 1, sequence (P51843 whole entry): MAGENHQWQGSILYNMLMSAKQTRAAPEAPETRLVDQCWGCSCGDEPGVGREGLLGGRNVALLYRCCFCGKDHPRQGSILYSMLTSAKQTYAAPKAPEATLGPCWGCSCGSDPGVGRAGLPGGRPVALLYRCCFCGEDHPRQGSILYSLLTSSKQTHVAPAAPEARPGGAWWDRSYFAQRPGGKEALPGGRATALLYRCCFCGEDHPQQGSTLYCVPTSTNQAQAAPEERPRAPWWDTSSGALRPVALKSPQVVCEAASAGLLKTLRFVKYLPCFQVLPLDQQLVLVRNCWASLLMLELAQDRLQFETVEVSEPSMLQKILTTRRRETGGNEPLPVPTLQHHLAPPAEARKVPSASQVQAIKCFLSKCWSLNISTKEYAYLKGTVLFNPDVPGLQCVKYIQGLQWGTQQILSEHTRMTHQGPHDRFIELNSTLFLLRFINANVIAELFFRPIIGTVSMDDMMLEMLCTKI
Hexokinase-1, sequence (P19367 whole entry, the tested form may be a part): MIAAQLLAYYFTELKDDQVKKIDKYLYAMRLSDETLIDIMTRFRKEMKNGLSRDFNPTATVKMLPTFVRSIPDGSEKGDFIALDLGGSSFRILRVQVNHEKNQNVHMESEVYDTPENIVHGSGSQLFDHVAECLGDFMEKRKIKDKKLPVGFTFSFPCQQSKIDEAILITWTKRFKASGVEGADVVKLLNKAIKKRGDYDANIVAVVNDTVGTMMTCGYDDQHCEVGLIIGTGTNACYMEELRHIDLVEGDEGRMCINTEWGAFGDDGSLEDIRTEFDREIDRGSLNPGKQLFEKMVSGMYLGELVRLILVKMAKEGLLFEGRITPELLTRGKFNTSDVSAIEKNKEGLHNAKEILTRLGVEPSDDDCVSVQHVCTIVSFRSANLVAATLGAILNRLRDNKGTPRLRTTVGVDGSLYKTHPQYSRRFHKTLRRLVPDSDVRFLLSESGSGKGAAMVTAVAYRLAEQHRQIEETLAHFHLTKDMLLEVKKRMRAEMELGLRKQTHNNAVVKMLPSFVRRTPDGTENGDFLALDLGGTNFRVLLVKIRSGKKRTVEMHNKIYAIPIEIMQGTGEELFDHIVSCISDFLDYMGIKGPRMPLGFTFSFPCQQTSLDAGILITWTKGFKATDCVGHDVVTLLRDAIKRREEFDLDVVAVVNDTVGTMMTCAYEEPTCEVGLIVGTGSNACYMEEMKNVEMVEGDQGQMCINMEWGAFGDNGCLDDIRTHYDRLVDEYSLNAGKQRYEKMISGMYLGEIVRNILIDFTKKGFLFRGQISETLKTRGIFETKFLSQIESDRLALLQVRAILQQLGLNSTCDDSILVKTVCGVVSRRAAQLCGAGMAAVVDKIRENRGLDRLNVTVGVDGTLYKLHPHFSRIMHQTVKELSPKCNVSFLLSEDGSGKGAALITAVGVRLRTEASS
Beta-galactosidase, sequence (Q8VNN2 whole entry): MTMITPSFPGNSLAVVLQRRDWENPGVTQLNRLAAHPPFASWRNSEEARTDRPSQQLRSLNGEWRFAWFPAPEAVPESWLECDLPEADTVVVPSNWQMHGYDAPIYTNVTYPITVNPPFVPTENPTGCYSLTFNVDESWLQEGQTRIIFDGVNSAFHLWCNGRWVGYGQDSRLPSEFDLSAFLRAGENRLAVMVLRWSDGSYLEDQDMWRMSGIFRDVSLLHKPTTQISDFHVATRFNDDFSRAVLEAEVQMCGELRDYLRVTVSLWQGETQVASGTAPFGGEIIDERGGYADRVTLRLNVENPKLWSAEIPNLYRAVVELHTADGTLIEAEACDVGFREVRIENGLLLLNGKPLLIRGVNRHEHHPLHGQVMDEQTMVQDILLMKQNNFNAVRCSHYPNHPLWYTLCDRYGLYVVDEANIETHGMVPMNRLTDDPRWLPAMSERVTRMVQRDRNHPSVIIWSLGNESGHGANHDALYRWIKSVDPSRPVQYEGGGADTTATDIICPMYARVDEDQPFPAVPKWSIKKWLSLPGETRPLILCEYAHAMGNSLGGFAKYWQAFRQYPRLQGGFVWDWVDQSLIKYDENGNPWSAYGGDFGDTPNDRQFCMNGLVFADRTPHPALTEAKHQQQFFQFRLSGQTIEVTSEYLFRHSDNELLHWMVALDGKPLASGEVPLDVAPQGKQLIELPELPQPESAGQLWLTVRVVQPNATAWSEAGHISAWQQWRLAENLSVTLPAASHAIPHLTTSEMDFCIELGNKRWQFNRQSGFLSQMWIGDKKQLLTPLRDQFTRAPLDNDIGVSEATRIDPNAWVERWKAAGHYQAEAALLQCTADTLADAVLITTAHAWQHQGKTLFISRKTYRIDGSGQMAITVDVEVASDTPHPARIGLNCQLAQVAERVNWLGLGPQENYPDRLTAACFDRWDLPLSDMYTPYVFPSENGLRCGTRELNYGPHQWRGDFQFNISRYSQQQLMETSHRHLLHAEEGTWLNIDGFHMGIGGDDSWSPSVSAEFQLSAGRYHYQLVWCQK
Phospholipase A2, sequence (P04054 whole entry): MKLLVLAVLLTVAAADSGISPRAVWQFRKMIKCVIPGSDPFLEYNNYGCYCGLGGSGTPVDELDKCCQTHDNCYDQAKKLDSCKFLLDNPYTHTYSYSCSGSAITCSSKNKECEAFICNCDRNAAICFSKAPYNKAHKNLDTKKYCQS

For the compound `CN(C)c1ccc(/C=C2\N=C(c3ccc(Cl)c([N+](=O)[O-])c3)NC2=O)cc1`, the EC50 on Beta-galactosidase is > 40 µM (inactive). In addition, the IC50 in [1] is listed as > 40 µM (not active).

`CCN(CC)CCCNC(=O)c1cc2c(=O)n(C)c3ccccc3c2n1C`: the IC50 (in assay [2]; with HEK293) was > 67.5 µM (inactive) each time. For the same compound, the AC50 in assay [3] is 26.9 µM (active).

As for `CSc1nnc2nc3c(c(O)n12)C1(CCCCC1)Cc1ccccc1-3`, the EC50 was 123 µM (active) in the assay on Streptococcus, > 150 µM (not active) on Streptokinase A and 7.86 µM (active) in assay [4]. For the same compound, the IC50 at Phospholipase A2 is 5.6 µM (active); at Cysteine protease ATG4B it was 7.09 µM (active).

`O=C(c1ccc(Cl)cc1)N1CCN(c2ccc(Cl)cc2)CC1`: the AC50 is 4.76 µM (active) in the assay on Candida albicans [5], 0.375 µM (active) with Candida albicans [6] and 5.25 µM (active) with Candida albicans [7].

On to `N#Cc1ccc(CSc2nnc(NC(=O)c3ccncc3)s2)cc1`, for which the IC50 at Hexokinase-1 and on Hexokinase HKDC1 was > 80 µM (inactive) each time.

For the compound `COCCN(C)c1cc(C)c2ccccc2n1`, the IC50 in assay [8] was 20.8 µM (active).
